Results: patent publication US20190134039A1, “ANTIVIRAL JAK INHIBITORS USEFUL IN TREATING OR PREVENTING RETROVIRAL AND OTHER VIRAL INFECTIONS” (EMORY UNIVERSITY, priority 2011, published 2019)
Where a name gives a salt, the structure may show the parent alone. Read-outs that look alike come from different tables or passages of the source.

Experiments:
Format in all cases: cell-based
[1] = test system: HIV-1 containing A62V/V75I/F77L/F116Y/Q151M; experiment: microbe, parasite or virus in culture; conditions: for FI50 (ratio of EC50 against mutant virus:EC50 against wild-type xxLAI) / FI90 (ratio of EC90 against mutant virus:EC90 against wild-type xxLAI): A62V/V75I/F77L/F116Y/Q151M; for EC50 / EC90: Human immunodeficiency virus 1, Lymphocyte
[2] = test system: HIV-1 containing M184V; experiment: microbe, parasite or virus in culture; conditions: for EC50 / EC90: Human immunodeficiency virus 1, Lymphocyte; for FI50 (ratio of EC50 against mutant virus:EC50 against wild-type xxLAI) / FI90 (ratio of EC90 against mutant virus:EC90 against wild-type xxLAI): M184V
[3] = test system: HIV-1 containing K65R; experiment: microbe, parasite or virus in culture; conditions: for EC50 / EC90: Human immunodeficiency virus 1, Lymphocyte; for FI50 (ratio of EC50 against mutant virus:EC50 against wild-type xxLAI) / FI90 (ratio of EC90 against mutant virus:EC90 against wild-type xxLAI): K65R
[4] = test system: HIV-1 containing L74V; experiment: microbe, parasite or virus in culture; conditions: for EC50 / EC90: Human immunodeficiency virus 1, Lymphocyte; for FI50 (ratio of EC50 against mutant virus:EC50 against wild-type xxLAI) / FI90 (ratio of EC90 against mutant virus:EC90 against wild-type xxLAI): L74V
[5] = test system: wild-type HIV-1xxLAI; experiment: Antiviral potency in primary human lymphocytes, wild type; conditions: Human immunodeficiency virus 1, Lymphocyte
[6] = test system: HIV-1 containing 4xAZT (D67N/K70R/T215Y/K219Q); experiment: microbe, parasite or virus in culture; conditions: for FI50 (ratio of EC50 against mutant virus:EC50 against wild-type xxLAI) / FI90 (ratio of EC90 against mutant virus:EC90 against wild-type xxLAI): 4xAZT (D67N/K70R/T215Y/K219Q); for EC50 / EC90: Human immunodeficiency virus 1, Lymphocyte
[7] = test system: various NRTI-resistant HIV-1; experiment: Antiviral potency against various NRTI-resistant HIV-1 in primary human lymphocytes (summary over strains); conditions: K65R, M184V, L74V, A62V/V75I/F77L/F116Y/Q151M, 4xAZT
Excerpt: FI50 is the ratio of EC50 against mutant virus:EC50 against wild-type xxLAI. FI90 is the ratio of EC90 against mutant virus:EC90 against wild-type xxLAI.

[8] = xxLAI, primary human lymphocytes, read-out: EC50
[9] = xxLAI, primary human lymphocytes, read-out: EC90

## Nc1nc(=O)n([C@@H]2CS[C@H](CO)O2)cc1F (relative stereo) [(−)FTC, cis-2-hydroxymethyl-5-(5-fluorocytosin-1-yl)-1,3-oxathiolane]
[1]
  FI50 (ratio of EC50 against mutant virus:EC50 against wild-type xxLAI): 4.2
  FI90 (ratio of EC90 against mutant virus:EC90 against wild-type xxLAI): 2.5
  EC50: 400 ± 300 nM
  EC90: 2100 ± 1600 nM
[2]
  EC50: 10100 ± 7300 nM
  EC90: 41300 ± 29300 nM
  FI50 (ratio of EC50 against mutant virus:EC50 against wild-type xxLAI): 117
  FI90 (ratio of EC90 against mutant virus:EC90 against wild-type xxLAI): 50
[3]
  EC50: 500 ± 400 nM
  EC90: 2400 ± 1400 nM
  FI50 (ratio of EC50 against mutant virus:EC50 against wild-type xxLAI): 5.5
  FI90 (ratio of EC90 against mutant virus:EC90 against wild-type xxLAI): 2.9
[4]
  EC50: 200 ± 200 nM
  EC90: 1300 ± 1000 nM
  FI50 (ratio of EC50 against mutant virus:EC50 against wild-type xxLAI): 2
  FI90 (ratio of EC90 against mutant virus:EC90 against wild-type xxLAI): 1.6
[5]; [8]
  EC50: 90 ± 20 nM
[5]; [9]
  EC90: 800 ± 400 nM
[6]
  FI50 (ratio of EC50 against mutant virus:EC50 against wild-type xxLAI): 2
  FI90 (ratio of EC90 against mutant virus:EC90 against wild-type xxLAI): 1.4
  EC50: 200 ± 100 nM
  EC90: 1200 ± 100 nM

## Nc1ccn([C@@H]2CS[C@H](CO)O2)c(=O)n1 [Compound 3TC, (−)-cis-2-hydroxymethyl-5-(cytosin-1-yl)-1,3-oxathiolane]
[1]
  FI50 (ratio of EC50 against mutant virus:EC50 against wild-type xxLAI): 0.6
  FI90 (ratio of EC90 against mutant virus:EC90 against wild-type xxLAI): 0.9
  EC50: 500 ± 700 nM
  EC90: 2700 ± 1700 nM
[2]
  EC50: > 10000 nM
  EC90: > 10000 nM
  FI50 (ratio of EC50 against mutant virus:EC50 against wild-type xxLAI): 13.3
  FI90 (ratio of EC90 against mutant virus:EC90 against wild-type xxLAI): 3.2
[3]
  EC50: 2500 ± 3000 nM
  EC90: 6000 ± 5300 nM
  FI50 (ratio of EC50 against mutant virus:EC50 against wild-type xxLAI): 3.3
  FI90 (ratio of EC90 against mutant virus:EC90 against wild-type xxLAI): 1.9
[4]
  EC50: 600 ± 800 nM
  EC90: 2900 ± 2900 nM
  FI50 (ratio of EC50 against mutant virus:EC50 against wild-type xxLAI): 0.7
  FI90 (ratio of EC90 against mutant virus:EC90 against wild-type xxLAI): 0.9
[5]; [8]
  EC50: 800 ± 400 nM
[5]; [9]
  EC90: 3100 ± 1200 nM
[6]
  FI50 (ratio of EC50 against mutant virus:EC50 against wild-type xxLAI): 0.9
  FI90 (ratio of EC90 against mutant virus:EC90 against wild-type xxLAI): 1.1
  EC50: 700 ± 800 nM
  EC90: 3400 ± 1100 nM

## Cc1cn([C@H]2C=C[C@@H](CO)O2)c(=O)[nH]c1=O [Compound D4T, 2′,3′-dideoxy-2′,3′-didehydrothymidine]
[1]
  FI50 (ratio of EC50 against mutant virus:EC50 against wild-type xxLAI): 6.9
  FI90 (ratio of EC90 against mutant virus:EC90 against wild-type xxLAI): 11
  EC50: 6800 ± 5700 nM
  EC90: 70300 ± 51400 nM
[2]
  EC50: 600 ± 800 nM
  EC90: 2600 ± 2500 nM
  FI50 (ratio of EC50 against mutant virus:EC50 against wild-type xxLAI): 0.6
  FI90 (ratio of EC90 against mutant virus:EC90 against wild-type xxLAI): 0.4
[3]
  EC50: 1500 ± 600 nM
  EC90: 7900 ± 300 nM
  FI50 (ratio of EC50 against mutant virus:EC50 against wild-type xxLAI): 1.5
  FI90 (ratio of EC90 against mutant virus:EC90 against wild-type xxLAI): 1.2
[4]
  EC50: 900 ± 800 nM
  EC90: 9800 ± 2400 nM
  FI50 (ratio of EC50 against mutant virus:EC50 against wild-type xxLAI): 0.9
  FI90 (ratio of EC90 against mutant virus:EC90 against wild-type xxLAI): 1.5
[5]
  EC50: 1000 ± 500 nM
  EC90: 6400 ± 400 nM
[6]
  FI90 (ratio of EC90 against mutant virus:EC90 against wild-type xxLAI): 8.3
  EC50: 27800 ± 37100 nM
  EC90: 53200 ± 66300 nM

## O=C1Nc2ccc(Cl)cc2[C@@](C#CC2CC2)(C(F)(F)F)O1 [EFV, efavirenz]
[1]
  FI50 (ratio of EC50 against mutant virus:EC50 against wild-type xxLAI): 7.7
  FI90 (ratio of EC90 against mutant virus:EC90 against wild-type xxLAI): 2
  EC50: 200 ± 300 nM
  EC90: 440 ± 600 nM
[2]
  EC50: 10 ± 6 nM
  EC90: 80 ± 80 nM
  FI50 (ratio of EC50 against mutant virus:EC50 against wild-type xxLAI): 0.5
  FI90 (ratio of EC90 against mutant virus:EC90 against wild-type xxLAI): 0.4
[3]
  EC50: 7 nM
  EC90: 20 ± 10 nM
  FI50 (ratio of EC50 against mutant virus:EC50 against wild-type xxLAI): 0.3
  FI90 (ratio of EC90 against mutant virus:EC90 against wild-type xxLAI): 0.1
[4]
  EC50: 60 ± 70 nM
  FI50 (ratio of EC50 against mutant virus:EC50 against wild-type xxLAI): 2.6
  FI90 (ratio of EC90 against mutant virus:EC90 against wild-type xxLAI): 1.1
[5]; [8]
  EC50: 20 ± 30 nM
[5]; [9]
  EC90: 200 ± 300 nM
[7]
  antiviral potency for wild-type HIV-1xxLAI versus NRTI-resistant HIV-1: similarly potent across all NRTI resistant strains
[6]
  FI50 (ratio of EC50 against mutant virus:EC50 against wild-type xxLAI): 3.1
  FI90 (ratio of EC90 against mutant virus:EC90 against wild-type xxLAI): 1
  EC50: 70 ± 40 nM

## CC(C)OC(=O)OCOP(=O)(CO[C@H](C)Cn1cnc2c(N)ncnc21)OCOC(=O)OC(C)C [TDF, Tenofovir disoproxil fumarate]
[1]
  FI50 (ratio of EC50 against mutant virus:EC50 against wild-type xxLAI): 3.9
  FI90 (ratio of EC90 against mutant virus:EC90 against wild-type xxLAI): 3.9
  EC50: 700 ± 800 nM
  EC90: 3600 ± 2200 nM
[2]
  EC50: 90 ± 30 nM
  EC90: 500 ± 300 nM
  FI50 (ratio of EC50 against mutant virus:EC50 against wild-type xxLAI): 0.6
  FI90 (ratio of EC90 against mutant virus:EC90 against wild-type xxLAI): 0.6
[3]
  EC50: 400 ± 100 nM
  EC90: 1600 ± 500 nM
  FI50 (ratio of EC50 against mutant virus:EC50 against wild-type xxLAI): 2.2
  FI90 (ratio of EC90 against mutant virus:EC90 against wild-type xxLAI): 1.7
[4]
  EC90: 200 ± 100 nM
  FI50 (ratio of EC50 against mutant virus:EC50 against wild-type xxLAI): 1.4
  FI90 (ratio of EC90 against mutant virus:EC90 against wild-type xxLAI): 1.2
[5]; [8]
  EC50: 200 ± 200 nM
[5]; [9]
  EC90: 900 ± 800 nM
[6]
  FI50 (ratio of EC50 against mutant virus:EC50 against wild-type xxLAI): 1.3
  FI90 (ratio of EC90 against mutant virus:EC90 against wild-type xxLAI): 1.3
  EC50: 70 ± 40 nM
  EC90: 1200 ± 1100 nM

## OC[C@@H]1CC[C@H](n2cnc3c(O)ncnc32)O1 [ddI, 2′,3′-dideoxyinosine]
[1]
  FI50 (ratio of EC50 against mutant virus:EC50 against wild-type xxLAI): 3.5
  FI90 (ratio of EC90 against mutant virus:EC90 against wild-type xxLAI): 1.5
  EC50: 40500 ± 52100 nM
  EC90: 83500 ± 28600 nM
[2]
  EC50: 11500 ± 9100 nM
  EC90: 44900 ± 26200 nM
  FI50 (ratio of EC50 against mutant virus:EC50 against wild-type xxLAI): 1
  FI90 (ratio of EC90 against mutant virus:EC90 against wild-type xxLAI): 0.8
[3]
  EC50: 21200 ± 18300 nM
  EC90: 86700 ± 800 nM
  FI50 (ratio of EC50 against mutant virus:EC50 against wild-type xxLAI): 1.8
  FI90 (ratio of EC90 against mutant virus:EC90 against wild-type xxLAI): 1.6
[4]
  EC50: 13200 ± 8500 nM
  EC90: 80900 ± 16600 nM
  FI50 (ratio of EC50 against mutant virus:EC50 against wild-type xxLAI): 1.1
  FI90 (ratio of EC90 against mutant virus:EC90 against wild-type xxLAI): 1.1
[5]; [8]
  EC50: 11500 ± 6600 nM
[5]; [9]
  EC90: 55400 ± 23000 nM
[6]
  FI50 (ratio of EC50 against mutant virus:EC50 against wild-type xxLAI): 3.1
  FI90 (ratio of EC90 against mutant virus:EC90 against wild-type xxLAI): 1.4
  EC50: 35500 ± 31000 nM
  EC90: 77100 ± 32400 nM
